Data on 18 compounds can be found in patent publication US5760036A, “Aminediol protease inhibitors” (E. R. Squibb & Sons, Inc., priority 1995, dated 1998).

Read-outs that look alike come from different tables or passages of the source.

Test [1] addresses T1, HIV protease (Human immunodeficiency virus type 1 group M subtype B, UniProt P04585).
T1 construct: and purified protease
Description: HIV Protease Assay. The test is classed as biochemical. The method in brief: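 Purified protease cleaved 450 μM octapeptide substrate in 50 mM sodium acetate pH 5.5 with 100 μg/ml BSA for 30 minutes at 37° C; product analyzed by reverse-phase HPLC at UV220 after H3PO4 quench. Inhibitors tested at final 10 μM with 4% DMSO.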

Test [2] has as its system RF strain of HIV (CEM-SS cells). Description: Cell Culture Anti-HIV Activity (cell viability, formazan). Format: cell-based. The conditions noted are these: Human immunodeficiency virus 1, CEM-SS, 144 h, CEM-SS cells, RF strain of HIV, multiplicity of infection 0.04, 6 days at 37° C., 450 nm; read-out: HIV (CEM Cells) IC50. In short, it runs like this:
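CEM-SS cells (5000/well) infected with HIV RF at MOI 0.04, exposed to half-log serial compound dilutions, incubated 6 days at 37° C. Viability read by tetrazolium reduction to formazan, absorbance 450 nm. IC50 is the concentration raising formazan in infected cells to 50% of uninfected, drug-free cells.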

Where [3] appears, read: pH 5.5, 10 μM inhibitor, 4% DMSO, 450 μM substrate, pH 5.5, 30 minutes at 37° C., RP-HPLC, read-out: HIV Protease % Inhibition at 10 μM.

In the case of `CC(C)(C)OC(=O)N[C@@H](Cc1ccccc1)[C@H](O)CNC[C@@H](O)[C@H](Cc1ccc(OCCn2ccnc2)cc1)NC(=O)OC(C)(C)C` [Compound 290, [1S-[1R*,2S*(2S*,3R*)]]-[3-[[3-[[(1,1-Dimethylethoxy)carbonyl]amino]-2-hydroxy-4-[4-[2-(1H-imidazol-1-yl)-ethoxy]phenyl]butyl]amino]-2-hydroxy-1-(phenylmethyl)-propyl]carbamic acid, 1,1-dimethylethyl ester], the inhibition at 10 µM in test [1] (pH 5.5, read-out: HIV Protease % Inhibition at 10 μM) is 99%. Further, in test [2], the 50% inhibitory concentration (IC50) stood at 60 nM.

Turning to `CC(C)(C)OC(=O)N[C@@H](Cc1ccccc1)[C@H](O)CNC[C@@H](O)[C@H](Cc1ccccc1)NC(=O)[C@@H](NC(=O)OCc1nc2ccccc2s1)C(C)(C)C` [Compound 292, [S-[1R*,2S*(2S*,3R*)]]-[2,2-Dimethyl-1-[[[3-[[3-[[(1,1-dimethylethoxy)carbonyl]amino]-2-hydroxy-4-phenylbutyl]amino]-2-hydroxy-1-(phenylmethyl)propyl]amino]carbonyl]propyl]carbamic acid, (2-benzothiazolyl)methyl ester], the inhibition at 10 µM in test [1] (setting [3]) came out at 99%. Besides, in test [2], the IC50 was 170 nM.

With `CC(C)(C)OC(=O)N[C@@H](Cc1ccc(OCCc2ccccn2)cc1)[C@H](O)CNC[C@@H](O)[C@H](Cc1ccccc1)NC(=O)OC(C)(C)CO` [Compound 298, [1S-[1R*,2S*(2S*,3R*)]]-[2 Hydroxy-3-[[2-hydroxy-3-[[(2-hydroxy-1,1-dimethylethoxy)carbonyl]amino]-4-phenylbutyl]amino]-1-[[4-[2-(2-pyridinyl)ethoxy]phenyl]methyl]propyl]carbamic acid, 1,1-dimethylethyl ester], in test [1] (setting [3]), the inhibition at 10 µM was found to be 100%. The IC50 in test [2] turned out to be 60 nM.

For `COCCOc1ccc(C[C@H](NC(=O)OC(C)(C)C)[C@H](O)CNC[C@@H](O)[C@H](Cc2ccccc2)NC(=O)OC(C)(C)CO)cc1` [Compound 299, [1S-[1R*, 2S*(2S*,3R*)]-[3-[[(1,1-Dimethylethoxy)carbonyl]amino]-2-hydroxy-4-[4-(2-methoxyethoxy)phenyl]butyl]amino]-2-hydroxy-1-(phenylmethyl)propyl]carbamic acid, 1-(hydroxymethyl)-1-methylethyl ester], the inhibition at 10 µM in test [1] (setting [3]) was found to be 99%. The IC50 in test [2] turned out to be 240 nM.

With `COCCCCOc1ccc(C[C@H](NC(=O)OC(C)(C)C)[C@H](O)CNC[C@@H](O)[C@H](Cc2ccccc2)NC(=O)OC(C)(C)C)cc1` [Compound 300, [1S-[1R*,2S*(2S*,3R*)]]-[3-[[3-[[(1,1-Dimethylethoxy)-carbonyl]amino]-2-hydroxy-4-[4-(4-methoxybutoxy)phenyl]butyl]amino]-2-hydroxy-1-(phenylmethyl)propyl]carbamic acid, 1,1-dimethylethyl ester], the inhibition at 10 µM in test [1] (setting [3]) was determined as 99%. The IC50 in test [2] came to 30 nM.

`CC(C)(C)OC(=O)N[C@@H](Cc1ccccc1)[C@H](O)CNC[C@@H](O)[C@H](Cc1ccccc1)NC(=O)OC1(CO)CCC1` [Compound 303, [1S-(1R*,2S*)]-[Iminobis[2-hydroxy-1-(phenylmethyl)-3,1-propanediyl]]bis[[carbamic acid], 1-(hydroxymethyl)cyclobutyl 1,1-dimethylethyl ester]: the inhibition at 10 µM in test [1] (setting [3]) came out at 98%. In test [2], the IC50 was 70 nM.

Turning to `CC(C)(C)OC(=O)N[C@@H](Cc1ccccc1)[C@H](O)CNC[C@@H](O)[C@H](Cc1ccc(OCCOc2cccnc2)cc1)NC(=O)OC(C)(C)C` [Compound 304, [1S-[1R*,2S* (2S*, 3R*)]]-[3-[[3-[[(1,1-Dimethylethoxy)carbonyl]amino]-2-hydroxy-4-[4-[2-(3-pyridinyloxy)ethoxylphenyl]butyl]amino]-2-hydroxy-1-(phenylmethyl)propyl]carbamic acid, 1,1-dimethylethyl ester], in test [1] (setting [3]), the inhibition at 10 µM was 99%. Further, the IC50 in test [2] came out at 30 nM.

In the case of `CC(O)COc1ccc(C[C@H](NC(=O)OC(C)(C)C)[C@H](O)CNC[C@@H](O)[C@H](Cc2ccccc2)NC(=O)OC(C)(C)C)cc1` (stereo partly drawn) [Compound 306, [1S-[1R*, 2S* (2S*, 3R*)]-[3-[[(1,1-Dimethylethoxy)carbonyl]amino]-2-hydroxy-4-[4-(2-hydroxypropoxy)phenyl]butyl]amino]-2-hydroxy-1-(phenylmethyl)propyl]carbamic acid, 1.1-dimethylethyl ester], the inhibition at 10 µM in test [1] (setting [3]) is 100%. The half-maximal inhibitory concentration (IC50) in test [2] came to 60 nM.

Take `CC(C)(C)OC(=O)N[C@@H](Cc1ccccc1)[C@H](O)CNC[C@@H](O)[C@H](Cc1ccccc1)NC(=O)OC1CCOC1` (stereo partly drawn) [Compound 310, [1S-(1R*,2S*)]l-[Iminobis[2-hydroxy-1-(phenylmethyl)3,1-propanediyl]]bis[carbamic acid], 3-tetrahydrofuranyl 1,1-dimethylethyl ester]: in test [1] (setting [3]), the inhibition at 10 µM is 100%. In test [2], the IC50 stood at 180 nM.

On to `CC(C)(C)OC(=O)N[C@@H](Cc1ccccc1)[C@H](O)CNC[C@@H](O)[C@H](Cc1ccccc1)NC(=O)[C@@H](NC(=O)OCc1cnc2ccccc2n1)C(C)(C)C` [Compound 311, [S-[1R*,2S*(2S*,3R*)]]-[2.2-Dimethyl-1-[[[3-[[(1,1-dimethylethoxy)carbonyl]amino]-2-hydroxy-4-phenylbutyl]amino]-2-hydroxy-1-(phenylmethyl)-propyl]aminocarbonyl]propyl]carbamic acid, (2-quinoxalinyl)methyl ester], for which, in test [1] (setting [3]), the inhibition at 10 µM came out at 100%. Also, in test [2], the IC50 was 50 nM.

For the compound `CC(C)(C)OC(=O)N[C@@H](Cc1ccccc1)[C@H](O)CNC[C@@H](O)[C@H](Cc1ccccc1)NC(=O)OC1(C)CCOC1` (stereo partly drawn) [Compound 314, [1S-(1R*,2S*)]-[Iminobis[2-hydroxy-1-(phenylmethyl)-3,1-propanediyl]]bis[carbamic acid], 1,1-dimethylethyl-3-methyl-3-tetrahydrofuranyl ester], the inhibition at 10 µM in test [1] (setting [3]) was found to be 100%. For the same compound, the IC50 in test [2] was determined as 120 nM.

Consider `CC(C)(C)OC(=O)N[C@@H](Cc1ccccc1)[C@H](O)CNC[C@@H](O)[C@H](Cc1ccccc1)NC(=O)[C@@H](NC(=O)OCC1COC(=O)N1)C(C)(C)C` (stereo partly drawn) [Compound 315, [S-[1R*,2S*(2S*,3R*)]]-[2,2-Dimethyl-l-[[[3-[[3-[[(1,1-dimethylethoxy)carbonyl]amino]-2-hydroxy-4-phenylbutyl]amino]-2-hydroxy-1-(phenylmethyl)-propyl]amino]carbonyl]propyl]carbamic acid, (2-oxo-4-oxazolidinyl)methyl ester], for which, in test [1] (setting [3]), the inhibition at 10 µM came to 100%. The IC50 in test [2] amounted to 1600 nM.

Regarding `CC(C)(C)OC(=O)N[C@@H](Cc1ccccc1)[C@H](O)CNC[C@@H](O)[C@H](Cc1ccccc1)NC(=O)O[C@H]1COC[C@@H]1O` [Compound 316, [1S-(1R*,2S*), (3S-trans)]-[Iminobis[2-hydroxy-1-(phenylmethyl)-3,1-propanediyl]]bis[carbamic acid], 4-hydroxy-3-tetrahydrofuranyl 1,1-dimethylethyl ester], in test [1] (setting [3]), the inhibition at 10 µM is 97%. The IC50 in test [2] came out at 620 nM.

Take `CC(C)(C)OC(=O)N[C@@H](Cc1ccccc1)[C@H](O)CNC[C@@H](O)[C@H](Cc1ccccc1)NC(=O)OC1CCCOC1` (stereo partly drawn) [Compound 318, [1S-(1R*,2S*)]-[Iminobis[2-hydroxy-1-(phenylmethyl)-3,1-propanediyl)]bis[carbamic acid], 1,1-dimethylethyl-3-tetrahydropyranyl ester]: the inhibition at 10 µM in test [1] (setting [3]) worked out at 100%. The IC50 in test [2] was determined as 100 nM.

As to `CC(C)(C)OC(=O)N[C@@H](Cc1ccccc1)[C@H](O)CNC[C@@H](O)[C@H](Cc1ccccc1)NC(=O)OC1COC1` [Compound 319], the inhibition at 10 µM in test [1] (setting [3]) turned out to be 93%. The IC50 in test [2] was determined as 1370 nM.

Turning to `COC(=O)N(C)[C@H](C(=O)N[C@@H](Cc1ccccc1)[C@H](O)CNC[C@@H](O)[C@H](Cc1ccccc1)NC(=O)OC(C)(C)C)C(C)(C)C` [Compound 320, [1S-[1R*,2S*,(2S*,3R*)]-[2,2-Dimethyl-1-[[[3-[[3-(1,1-dimethylethoxy)-carbonyl]amino]-2-hydroxy-4-phenylbutyl]amino]-2-hydroxy-1-(phenylmethyl)propyl]amino]-carbonyl]propyl]methylcarbamic acid, methyl ester], the inhibition at 10 µM in test [1] (setting [3]) was 100%. Further, the IC50 in test [2] came to 220 nM.

With `CC(C)(C)OC(=O)N[C@@H](Cc1ccccc1)[C@H](O)CNC[C@@H](O)[C@H](Cc1ccccc1)NC(=O)[C@@H](NC(=O)OCc1cc2ncccc2o1)C(C)(C)C` [Compound 323, [S-[1R*,2S*(2S*,3R*)]]-[r2,2-Dimethyl-1-[[[3-[[3-[[(1.1-dimethylethoxy)carbonyl]amino]-2-hydroxy-4-phenylbutyl]amino]-2-hydroxy-1-(phenylmethyl)propyl]amino]carbonyl]propyl]carbamic acid, (2-furo[3,2-b]pyridinyl)methyl ester], the inhibition at 10 µM in test [1] (setting [3]) was 100%. Also, in test [2], the IC50 was determined as 14 nM.

With `COC(C(=O)N[C@@H](Cc1ccccc1)[C@H](O)CNC[C@@H](O)[C@H](Cc1ccccc1)NC(=O)OC(C)(C)C)C(C)(C)C` (stereo partly drawn) [Compound 325, [1S-[1R*,2S*(2S*,3R*)]]-[2-Hydroxy-3-[[2-hydroxy-3-[(2-methoxy-3,3-dimethyl-1-oxobutyl)amino]-4-phenylbutyl]amino]-1-(phenylmethyl)-propyl]carbamic acid, 1,1-dimethylethyl ester], the inhibition at 10 µM in test [1] (setting [3]) was found to be 90%. In test [2], the IC50 turned out to be 1540 nM.

Usually inhibition stands for the relative decrease from the control value, in per cent. Usually IC50 stands for the midpoint of a concentration-inhibition curve.
